Assay results reported in US6825230B2, “Spiro and dispiro 1,2,4-trixolane antimalarials” (Medicines for Malaria Venture MMV, priority 2002, dated 2004).
In brackets after ≈: the same amount, converted by molar mass.

What was measured:
[1] = tested on: ANKA strain of Plasmodium berghei; experiment: Single dose ED50/ED90/ED99 determination in infected mice; type: in vivo; conditions: single dose po in SSV on day 1 post-infection, parasitemia day 3, nonlinear fitting
Procedure: In the single dose ED50/ED98/ED99 determinations, Moro SPF or NMRI mice (group of three) infected with the ANKA strain of Plasmodium berghei were treated on day one post-infection. […] The SSV consists of 0.5% w/v CMC, 0.5% v/v benzyl alcohol, 0.4% v/v Tween 80, and 0.9% w/v sodium chloride in water. Antimalarial activity was measured by percent reduction in parasitemia on day three post-infection. The ED50/ED90 values were calculated by nonlinear fitting.
The ED50, ED90, and ED99 values were calculated by non-linear fitting with statistical program and were expressed in mg/kg.

[2] = tested on: chloroquine-resistant K1 strain of P. falciparum; experiment: In vitro antimalarial semiautomated microdilution assay ([3H]-hypoxanthine incorporation), K1 strain; type: cell-based, Plasmodium falciparum; conditions: for IC50: Plasmodium falciparum, K1, 72 h, read-out: IC50 (ng/ml) K1, chloroquine-resistant K1 strain, 72 h incubation
Procedure, shortened: (§1)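 IC50 values come from Logit regression of [3H]-hypoxanthine uptake data. Parasites were intraerythrocytic P. falciparum forms taken from asynchronous stock cultures and tested by semiautomated microdilution.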

[3] = tested on: chloroquine-sensitive NF54 strain of P. falciparum; experiment: In vitro antimalarial semiautomated microdilution assay ([3H]-hypoxanthine incorporation), NF54 strain; type: cell-based, Plasmodium falciparum; conditions: for IC50: Plasmodium falciparum, NF54, 72 h, read-out: IC50 (ng/ml) NF54, chloroquine-sensitive NF54 strain, 72 h incubation
Procedure, shortened: as §1

[4] = tested on: ANKA strain of P. berghei; experiment: Single dose STI in vivo screen in infected mice; parameters: species or system Plasmodium berghei; conditions: for Survival (days) 10 mg/kg po: single 10 mg/kg po in 3% ethanol and 7% Tween 80; for Survival (days) 10 mg/kg po / Survival (days) 10 mg/kg SSV po / Survival (days) 10 mg/kg sc: untreated 6-7 days; for Activity (%) 10 mg/kg po: single 10 mg/kg po in 3% ethanol and 7% Tween 80 on day 1 post-infection; for Activity (%) 10 mg/kg po / Activity (%) 10 mg/kg SSV po / Activity (%) 10 mg/kg sc: percent reduction in parasitemia on day 3; for Survival (days) 10 mg/kg SSV po: single 10 mg/kg po in SSV; for Activity (%) 10 mg/kg SSV po: single 10 mg/kg po in standard suspending vehicle (SSV) on day 1 post-infection; for Survival (days) 10 mg/kg sc: single 10 mg/kg sc in 3% ethanol and 7% Tween 80; for Activity (%) 10 mg/kg sc: single 10 mg/kg sc in 3% ethanol and 7% Tween 80 on day 1 post-infection
[5] = tested on: Schistosoma mansoni 21-day-old schistosomules; experiment: Effect on 21-day-old schistosomules in infected mice; type: in vivo; conditions: single 200 mg/kg per os, 21-day-old schistosomules
Procedure: Mice were infected with 100 Schistosoma mansoni cercariae on day 21 post-treatment. Each group was treated per os with trioxolanes at a single dose of 200 mg/kg. […] All groups were killed 4 weeks after treatment and the liver and intestine were removed and separated. The liver and intestine were compressed and alive male and female worms could be seen and counted. The effect of the compounds was evaluated by mean total and female worm burden.

[6] = tested on: Schistosoma mansoni adult worms (49-day-old); experiment: Effect on adult schistosomes (49-day-old) in infected mice; type: in vivo; conditions: single 400 mg/kg per os
Procedure: Mice were infected with 100 Schistosoma mansoni cercariae on day 49 post-treatment. Each group was treated per os with OZ compounds at single doses of 200, 400, and 600 mg/kg. Untreated mice served as the control. All groups were killed 4 weeks after treatment and the liver and intestine were removed and separated. The liver and intestine were compressed and alive male and female worms could be seen and counted.

Structure (SMILES) | ED90 [1] [mg/kg] | ED99 [1] [mg/kg] | IC50 [2] [ng/mL] | IC50 [3] [ng/mL] | Survival (days) 10 mg/kg po [4] [days] | Activity (%) 10 mg/kg po [4] | Survival (days) 10 mg/kg SSV po [4] [days] | Activity (%) 10 mg/kg SSV po [4] | Survival (days) 10 mg/kg sc [4] [days] | Activity (%) 10 mg/kg sc [4] | ED50 ([1]; Plasmodium berghei, po) [mg/kg] | other results
C[C@H]1[C@@H](OCc2ccc(C(=O)O)cc2)O[C@@H]2O[C@@]3(C)CC[C@H]4[C@H](C)CC[C@@H]1[C@@]24OO3 [Artelinate, artelinate, reference compound] | 10 | 18 | – | – | – | – | – | – | – | – | – | ED50 [1]: 4.8 mg/kg
CC(C)(O)[C@H]1CC[C@]2(CC1)OOC1(O2)C2CC3CC(C2)CC1C3 (some centres unmarked) [OZ108] | – | – | 68 (≈ 211 nM) | 29 (≈ 89.9 nM) | 5.0 | 0/0/0% | 5.0 | 0/0/0% | 5.7 | 0/0/0% | – | % reduction of schistosomule growth at day 21 after per os application of 200 mg/kg, FWR (%) ([5]; female worm reduction rate): 28%; % reduction of schistosomule growth at day 21 after per os application of 200 mg/kg, TWR (%) ([5]; total worm reduction rate): 30%; % reduction of adult worms growth at day 49 after per os application of 400 mg/kg, TWR (%) ([6]; 49-day-old adults, total worm reduction rate): 28%; Adult worms day 49, per os 400 mg/kg, DEAD WORM (%) ([6]; percentage of dead worm in the liver): 0%
COCC(=O)N1CCC2(CC1)OOC1(O2)C2CC3CC(C2)CC1C3 (centres unmarked) [OZ113, Adamantane-2-spiro-3′-8′-methoxyacetyl-1′,2′,4′-trioxa-8′-azaspiro[4.5]decane] | 9.0 | 19 | 0.95 (≈ 2.82 nM) | 0.2 (≈ 0.593 nM) | 7.3 | 92% | 8.0 | 96% | 7.3 | 89% | 3.6 | –
O=C(NO)[C@H]1CC[C@@]2(CC1)OOC1(O2)C2CC3CC(C2)CC1C3 (some centres unmarked) [OZ127] | 7.6 | 19 | 0.61 (≈ 1.89 nM) | 1.3 (≈ 4.02 nM) | 7.0 | 95% | 7.7 | 98% | 7.7 | 97% | 2.5 | –
c1ncn(C[C@H]2CC[C@]3(CC2)OOC2(O3)C3CC4CC(C3)CC2C4)n1 (stereo partly drawn) [OZ177, cis-Adamantane-2-spiro-3′-8′-(1′H-1′,2′,4′-triazol-1′-ylmethyl)-1′,2′,4-trioxaspiro[4.5]decane] | 3.7 | 5.8 | – | – | – | – | – | – | – | – | 2.1 | IC50 (ng/ml) K1 ([2]; chloroquine-resistant K1 strain, 72 h incubation): 0.9 ng/mL (≈ 2.61 nM); IC50 (ng/ml) NF54 ([3]; chloroquine-sensitive NF54 strain, 72 h incubation): 1.7 ng/mL (≈ 4.92 nM); Survival (days) 10 mg/kg po ([4]; 10 mg/kg): 12.3 days; Activity (%) 10 mg/kg po ([4]; 10 mg/kg): 99.91%; Survival (days) 10 mg/kg SSV po ([4]; 10 mg/kg): 12.7 days; Activity (%) 10 mg/kg SSV po ([4]; 10 mg/kg): 99.88%; Survival (days) 10 mg/kg sc ([4]; 10 mg/kg): 17.7 days; Activity (%) 10 mg/kg sc ([4]; 10 mg/kg): 99.91%
c1cn(C[C@H]2CC[C@]3(CC2)OOC2(O3)C3CC4CC(C3)CC2C4)cn1 (some centres unmarked) [OZ179] | 3.3 | 6.6 | 1.3 (≈ 3.77 nM) | 1.1 (≈ 3.19 nM) | – | – | – | – | – | – | 1.4 | Survival (days) 10 mg/kg po ([4]; hydrochloride, 10 mg/kg): 11.3 days; Activity (%) 10 mg/kg po ([4]; hydrochloride, 10 mg/kg): 99.91%; Survival (days) 10 mg/kg SSV po ([4]; hydrochloride, 10 mg/kg): 10.3 days; Activity (%) 10 mg/kg SSV po ([4]; hydrochloride, 10 mg/kg): 99.78%; Survival (days) 10 mg/kg sc ([4]; hydrochloride, 10 mg/kg): 11.3 days; Activity (%) 10 mg/kg sc ([4]; hydrochloride, 10 mg/kg): 99.91%
NC[C@H]1CC[C@]2(CC1)OOC1(O2)C2CC3CC(C2)CC1C3 (some centres unmarked) [OZ181] | 1.8 | 4.0 | – | – | – | – | – | – | – | – | 0.63 | Survival (days) 10 mg/kg po ([4]; 10 mg/kg): 9.0 days; Activity (%) 10 mg/kg po ([4]; 10 mg/kg): 99.98%; Survival (days) 10 mg/kg SSV po ([4]; 10 mg/kg): 10.0 days; Activity (%) 10 mg/kg SSV po ([4]; 10 mg/kg): 99.91%; Survival (days) 10 mg/kg sc ([4]; 10 mg/kg): 11.0 days; Activity (%) 10 mg/kg sc ([4]; 10 mg/kg): 100%
